# Measurements published in patent publication US20250381166A1, “Cannabis-Derived Flavonoids And Related Methods” (CANURTA INC., priority 2022, published 2025).
# Experiments:
# nuclear Arc protein = conditions: 16.7 μM co-applied with recombinant BDNF for 6 h; cited from earlier work
# medulloblastoma cell = conditions: TrkB inhibition; cited from earlier work
# [1] = system: Neuro2a cells stably expressing Ntrk2-Myc-FLAG; assay: Neurite outgrowth assessment; format: cell-based; conditions: 10 μM with BDNF
# Method: For neurite outgrowth assay, Neuro2a cells were cultured in DMEM [supplemented with 10% HyClone FetalClone II serum (Cytiva, Global Life Sciences Solutions, Marlborough, MA), penicillin (50 units/ml), and streptomycin (50 μg/ml)] and transfected overnight using Lipofectamine 2000 (Invitrogen) according to the manufacturer's protocol.
# Neuro2A cells transfected with a pCMV6-Ntrk2-Myc-DDK (FLAG) construct were selected with G418 (Geneticin) to produce a stable cell line that constitutively expresses tagged-TrkB. For neurite outgrowth assessment, cells were seeded on 15 mm glass coverslips in 12-well plates at a density of 2.0×10^4 per well. […] Phase contrast digital images were collected with a 20× objective 48 h after plating and the total number of viable cells, total number of neurites, and cells with neurites longer than 2 cells in diameter were counted (five fields per dish, three wells per condition).
# A172 GBM cells [2] = assay: Boyden Chamber invasion assay; format: cell-based; conditions: 10 μM; for GBM cell invasion: 24 hours
# Method: FIG. 9. […] Boyden Chamber assay was performed on A172 GBM cells to analyze minimal doses (10 μM) of TrkB inhibitors on preventing GBM cell invasion. Cells were pretreated in low serum media for 24 hours. Bottoms of transwell inserts were coated with fibronectin and tops were coated with Matrigel prior to cells being seeded with treatment media (low serum; n=3 per treatment). After 24 hours, cells were cleaned off the top of the Matrigel, and cells that invaded into the pores of the transwell were stained with 1% Crystal Violet and (A) imaged at 20×.
# A172 GBM cells [3] = assay: AlamarBlue cell viability, A172; format: cell-based; conditions: 24, 48 and 72 hours, vs DMSO
# Method: (§1) FIG. 6. Cannflavins A and B reduce the viability of Glioblastoma cells. Cell viability was measured using an AlamarBlue reaction after 24, 48, and 72 hours of treatment. […] Graphs represent mean±SEM.
# Mapk = Mapk phosphorylation, western blot, Neuro2a cells stably expressing Ntrk2-Myc-FLAG; format: cell-based; conditions: with BDNF
# U87 GBM cells [4] = assay: AlamarBlue cell viability, U87; format: cell-based; conditions: 24, 48 and 72 hours, vs DMSO
# Method: as §1
# nuclear Arc = assay: BDNF-induced nuclear Arc, fluorescent immunocytochemistry, primary cortical neurons; format: cell-based, mouse; conditions: 10 μM co-treated with BDNF; vs BDNF-alone control
# Method: Indirect immunofluorescence detection of antigens was carried out using cortical neurons cultured on poly-L-lysine/laminin coated coverslips in 24-well plates at a density of 0.1′10^6 per well. After experimental treatment, cells were washed twice with phosphate-buffered saline (PBS) and fixed for 30 min at room temperature with 4% paraformaldehyde in PBS. After fixation, cells were washed twice with PBS, permeabilized with PBST (PBS and 0.25% Triton X-100) for 20 min, blocked in blocking solution (5% goat non-immune serum in PBS) for another 30 min, and finally incubated overnight at 4° C. with the first primary antibody in blocking solution. The next day, coverslips were extensively washed with PBS and incubated for 2 hours at room temperature in the appropriate fluorophore-conjugated secondary antibody solution [Alexa Fluor 488-, Alexa Fluor 594, or Alexa Fluor 647-conjugated secondary antibody (Molecular Probes, Invitrogen) in blocking solution]. After washes with PBS, the coverslips were incubated again overnight in primary antibody solution for the second antigen, and the procedure for conjugation of the fluorophore-conjugated secondary antibody was repeated as above. Finally, cell nuclei were counterstained with 4′,6-diamidino-2-phenylindole (DAPI), and coverslips were mounted on glass slides with ProLong Antifade reagent (Invitrogen).
# Cells cultured on coverslips from three independent biological replicates were imaged with a Nikon Eclipse Ti2-E inverted microscope equipped with a motorized stage, image stitching capability, and a 60× objective (Nikon Instruments, Melville, NY). Image analysis was performed with ImageJ and NIS Elements and the following procedure was used to quantify nuclear Arc level in response to BDNF-TrkB signaling. First, original raw tiff files were opened and the nucleus of all neurons in the image was located based on MAP2 immunostaining, then average pixel intensity corresponding to Arc immunofluorescence was measured for a 30-pixel spot positioned at the center of the nuclear compartment. […]
# Arc protein = assay: BDNF-induced Arc expression, western blot, primary cortical neurons; format: cell-based, mouse; conditions: BDNF co-treatment, tested 1 to 20 μM
# Method: The following procedure was used to quantify western blot analyses. First, equal quantity of protein lysate was analyzed by SDS-PAGE for each biological replicate. Second, the exposure time of the film to the ECL chemiluminescence was the same for each biological replicate. Third, all the exposed films were scanned on a HP Laser Jet Pro M377dw scanner in grayscale at a resolution of 300 dpi. Fourth, the look-up table (LUT) of the scanned tiff images was inverted and the intensity of each band was individually estimated using the selection tool and the histogram function in Adobe Photoshop CC 2021 software. Finally, the intensity of each band was divided by the intensity of its respective loading control (b-actin) to provide the normalized value used for statistical analysis.
# [5] = system: Ras-Raf-MEK-MAPK and PI3K/AKT/mTOR cascades; assay: Signaling downstream of TrkB, western blot, primary cortical neurons; conditions: BDNF-induced increase; 0, 1, 5, 10, 20 μM
# Method: Developing cerebral cortex from E16.5 CD-1 mouse embryos were dissected and then dissociated in trypsin solution for 15 min followed by three washes with phosphate-buffered saline (PBS). Trypsinized tissue was gently triturated to produce single cell suspension. Next, cells were seeded in poly-L-lysine/laminin coated 6-well plates at a density of 1.5×10^6 per well and maintained in Neurobasal medium containing B27 supplement (2%, Invitrogen, Grand Island, NY), penicillin (50 U/ml, Invitrogen), streptomycin (50 μg/ml, Invitrogen) and glutamine (1 mM, Sigma). For experiments involving BDNF (PeproTech, Rocky Hill, NJ), the growth factor was added directly to the culture medium at a final concentration of 100 ng/ml for the indicated period of time.
# For western blot analyses, cells were collected by scraping in ice-cold radioimmunoprecipitation assay (RIPA) buffer (50 mM tris-HCl [pH 8.0], 300 mM NaCl, 0.5% Igepal-630, 0.5% deoxycholic acid, 0.1% SDS, 1 mM EDTA) supplemented with a cocktail of protease inhibitors (Complete Protease Inhibitor without EDTA, Roche Applied Science, Indianapolis, IN) and phosphatase inhibitors (Phosphatase Inhibitor Cocktail 3, Sigma-Aldrich). One volume of 2× Laemmli buffer (100 mM tris-HCl [pH 6.8], 4% SDS, 0.15% bromophenol blue, 20% glycerol, 200 mM b-mercaptoethanol) was added and the extracts were boiled for 5 min. Samples were adjusted to an equal concentration after protein concentrations were determined using the BCA assay (Pierce, Thermo Fisher Scientific). Lysates were separated using SDS-PAGE (polyacrylamide gel electrophoresis) and transferred to a nitrocellulose membrane. After transfer, the membrane was blocked in TBST (tris-buffered saline and 0.1% Tween 20) supplemented with 5% nonfat powdered milk and probed with the indicated primary antibody at 4° C. overnight. After washing with TBST, the membrane was incubated with the appropriate secondary antibody and visualized using enhanced chemiluminescence (ECL) reagents according to the manufacturer's guidelines (Pierce, Thermo Fisher Scientific).
# U87 GBM cells [6] = assay: Scratch migration analysis, U87; conditions: 24 hours of treatment
# A172 GBM cells [7] = assay: LDH cytotoxicity assay, A172; format: cell-based; conditions: 24 hours, compared to DMSO
# [8] = system: prostaglandin E2 production; conditions: inhibitors of prostaglandin E2 production; cited from earlier work
# Arc mRNA = Arc mRNA real-time reverse transcriptase PCR, primary cortical neurons; format: cell-based, mouse; conditions: 10 μM with BDNF; vs BDNF-alone control
# U87 GBM cells [9] = assay: LDH cytotoxicity assay, U87; format: cell-based; conditions: 24 hours, compared to DMSO
# [10] = system: 320 distinct nonolfactory human GPCRs; assay: PRESTO-Tango GPCR assay (GPCRome panel); conditions: 10 μM; quadruplicate
# A172 GBM cells [11] = assay: Scratch migration analysis, A172; conditions: 24 hours of treatment
# GPR150 = target: T1, GPR150 (Homo sapiens, UniProt Q8NGU9); assay: PRESTO-Tango GPCR assay, GPR150; format: cell-based; conditions: 10 μM
# T1 construct: expressed in transfected cells
# T1 sequence (Q8NGU9 whole entry): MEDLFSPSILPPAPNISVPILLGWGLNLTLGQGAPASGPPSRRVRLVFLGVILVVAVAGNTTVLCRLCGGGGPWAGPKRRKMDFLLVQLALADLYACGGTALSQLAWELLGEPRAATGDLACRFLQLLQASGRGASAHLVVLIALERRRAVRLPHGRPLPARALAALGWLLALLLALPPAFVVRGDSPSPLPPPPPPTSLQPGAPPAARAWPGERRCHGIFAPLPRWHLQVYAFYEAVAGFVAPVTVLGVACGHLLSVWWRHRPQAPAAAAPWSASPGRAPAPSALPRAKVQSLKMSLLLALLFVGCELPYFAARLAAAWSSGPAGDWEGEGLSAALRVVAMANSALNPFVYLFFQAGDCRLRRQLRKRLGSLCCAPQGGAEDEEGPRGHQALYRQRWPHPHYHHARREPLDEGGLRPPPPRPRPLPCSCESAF
structure (smiles),measurement,setting,value
"O=c1cc(-c2ccccc2)oc2c(O)c(O)ccc12 [7,8-DHF, 7,8-dihydroxyflavone]",nuclear Arc protein level,nuclear Arc protein,enhance nuclear Arc protein level above the control measure
O=C(Nc1ccccc1C(=O)NC1CCCCNC1=O)c1cc2ccccc2s1 (stereo not shown) [ANA-12],medulloblastoma cell survival,medulloblastoma cell,reduced medulloblastoma cell survival by inducing apoptosis
same,number of cells with neurites twice the length of the cell,[1]; 24-hour treatment,decrease
same,total number of neurites per field,[1]; 24-hour treatment,decrease
same,viable cells,[1]; 24-hour treatment,decrease
same,GBM cell invasion,A172 GBM cells [2],decrease in GBM cell invasion
same,cell viability (AlamarBlue),A172 GBM cells [3],reduced cell viability
same,P-Mapk levels,Mapk,did not observe a decrease
same,cell viability (AlamarBlue),U87 GBM cells [4],reduced cell viability
"Oc1cc(O)c2c(c1)O[C@H](c1cc(O)c(O)c(O)c1)[C@H](O)C2 [ECGC, (−)-epigallocatechin]",percentage of nuclei with Arc expression above threshold (Arc-positive neuronal abundance),nuclear Arc,moderate increase
same,nuclear Arc protein level,nuclear Arc protein,enhance nuclear Arc protein level above the control measure
O=C(O)[C@H]1O[C@@H](Oc2cc3oc(-c4ccccc4)cc(=O)c3c(O)c2O)[C@H](O)[C@@H](O)[C@@H]1O [baicalin],nuclear Arc protein level,nuclear Arc protein,enhance nuclear Arc protein level above the control measure
COc1cc(-c2cc(=O)c3c(O)c(C/C=C(\C)CCC=C(C)C)c(O)cc3o2)ccc1O [cannflavin A],concentrations resulting in significantly less Arc protein abundance than the BDNF-alone control,Arc protein,10 to 20 µM
same,P-Akt level,[5],sharply reduced
same,P-MAPK level,[5],sharply reduced
same,P-mTOR level,[5],sharply reduced
same,P-rpS6 level,[5],sharply reduced
same,cell migration,U87 GBM cells [6],reduce the migration
same,LDH release / cell necrosis,A172 GBM cells [7],slight increase in LDH release
same,BDNF-induced neurite outgrowths,[1],reduce
same,anti-inflammatory potency relative to aspirin,[8],thirty times more potent than aspirin
same,Arc mRNA abundance,Arc mRNA,prevent induction of Arc mRNA expression
same,GBM cell invasion,A172 GBM cells [2],reduce invasion
same,cell viability (AlamarBlue),A172 GBM cells [3],reduced cell viability
same,LDH release / cell necrosis,U87 GBM cells [9],slight increase in LDH release
same,cell viability (AlamarBlue),U87 GBM cells [4],reduced cell viability
same,agonist activity on GPCRs,[10],no effect on any of the 322 different GPCRs tested
same,cell migration,A172 GBM cells [11],reduce the migration
COc1cc(-c2cc(=O)c3c(O)c(CC=C(C)C)c(O)cc3o2)ccc1O [cannflavin B],concentrations resulting in significantly less Arc protein abundance than the BDNF-alone control,Arc protein,1 to 20 µM
same,P-Akt level,[5],sharply reduced
same,P-MAPK level,[5],sharply reduced
same,P-mTOR level,[5],sharply reduced
same,P-rpS6 level,[5],sharply reduced
same,cell migration,U87 GBM cells [6],reduce the migration
same,LDH release / cell necrosis,A172 GBM cells [7],slight increase in LDH release
same,BDNF-induced neurite outgrowths,[1],reduce
same,anti-inflammatory potency relative to aspirin,[8],thirty times more potent than aspirin
same,Arc mRNA abundance,Arc mRNA,prevent induction of Arc mRNA expression
same,GBM cell invasion,A172 GBM cells [2],decrease in GBM cell invasion
same,efficiency in reducing cell invasion compared with the other TrkB inhibitors,A172 GBM cells [2]; no statistical scores,tends to be more efficient in reducing cell invasion than cannflavin A and ANA-12
same,increase of GPR150 activity from baseline,GPR150,4.4 fold-change
same,cell viability (AlamarBlue),A172 GBM cells [3],reduced cell viability
same,LDH release / cell necrosis,U87 GBM cells [9],slight increase in LDH release
same,cell viability (AlamarBlue),U87 GBM cells [4],reduced cell viability
same,cell migration,A172 GBM cells [11],reduce the migration
O=c1c(-c2ccc(O)cc2)coc2cc(O)ccc12 [daidzein],percentage of nuclei with Arc expression above threshold (Arc-positive neuronal abundance),nuclear Arc,moderate increase
same,nuclear Arc protein level,nuclear Arc protein,enhance nuclear Arc protein level above the control measure
O=c1c(-c2ccc(O)cc2)coc2cc(O)cc(O)c12 [genistein],percentage of nuclei with Arc expression above threshold (Arc-positive neuronal abundance),nuclear Arc,moderate increase
same,nuclear Arc protein level,nuclear Arc protein,enhance nuclear Arc protein level above the control measure
